# Reference: patent US6767907B2, “4-aryl-1-(indanmethyl dihydrobenzofuranmethyl or dihydrobenzothiophenemethyl) piperidines tetrahydropyridines or piperazines” (H. Lundbeck A/S, priority 1994, dated 2004)
# Where a name gives a salt, the structure may show the parent alone. Read-outs that look alike come from different tables or passages of the source.
# How the values were obtained:
# 5-HT1A receptors = target: T1, 5-HT1A receptors (Rattus norvegicus, UniProt P19327); experiment: Inhibition of 3H-8-OH-DPAT binding to serotonin 5-HT1A receptors in rat brain in vitro; details: 3H-8-OH-DPAT 1 nM; for IC50: membranes from rat brain minus cerebellum, read-out: 3H 8-OH DPAT (5-HT1A) binding, IC50
# T1 construct: 5-HT1A receptors in membranes from rat brain minus cerebellum; from tissue; host or cells: rat brain minus cerebellum, membranes
# T1 sequence (P19327 1-422): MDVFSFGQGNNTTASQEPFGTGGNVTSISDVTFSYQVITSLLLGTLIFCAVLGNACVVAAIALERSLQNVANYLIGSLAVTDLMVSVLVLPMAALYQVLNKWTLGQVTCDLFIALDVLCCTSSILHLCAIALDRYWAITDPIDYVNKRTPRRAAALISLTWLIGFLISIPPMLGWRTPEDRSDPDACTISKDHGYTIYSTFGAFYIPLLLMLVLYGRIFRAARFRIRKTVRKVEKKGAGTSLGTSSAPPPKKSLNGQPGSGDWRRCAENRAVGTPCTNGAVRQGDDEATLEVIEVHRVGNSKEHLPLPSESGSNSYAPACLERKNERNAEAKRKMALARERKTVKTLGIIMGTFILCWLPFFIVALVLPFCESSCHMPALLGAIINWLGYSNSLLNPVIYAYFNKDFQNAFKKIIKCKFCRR
# Protocol: By this method the inhibition by drugs of the binding of the 5-HT1A agonist ^3H-8-OH-DPAT (1 nM) to 5-HT1A receptors in membranes from rat brain minus cerebellum is determined in vitro . Accordingly, this is a test for affinity for the 5-HT1A receptor. The test is performed as described by Hyttel et al., Drug. Dev. Res., 1988, 15, 389-404.
# 5-HT2A receptors = target: T2, 5-HT2A receptors (Rattus norvegicus, UniProt P14842); experiment: Inhibition of 3H-Ketanserin binding to 5-HT2 receptors in rat cortex in vitro
# T2 construct: 5-HT2A receptors in membranes from rat is determined in vitro; from tissue; host or cells: rat cortex membranes
# T2 sequence (P14842 whole entry): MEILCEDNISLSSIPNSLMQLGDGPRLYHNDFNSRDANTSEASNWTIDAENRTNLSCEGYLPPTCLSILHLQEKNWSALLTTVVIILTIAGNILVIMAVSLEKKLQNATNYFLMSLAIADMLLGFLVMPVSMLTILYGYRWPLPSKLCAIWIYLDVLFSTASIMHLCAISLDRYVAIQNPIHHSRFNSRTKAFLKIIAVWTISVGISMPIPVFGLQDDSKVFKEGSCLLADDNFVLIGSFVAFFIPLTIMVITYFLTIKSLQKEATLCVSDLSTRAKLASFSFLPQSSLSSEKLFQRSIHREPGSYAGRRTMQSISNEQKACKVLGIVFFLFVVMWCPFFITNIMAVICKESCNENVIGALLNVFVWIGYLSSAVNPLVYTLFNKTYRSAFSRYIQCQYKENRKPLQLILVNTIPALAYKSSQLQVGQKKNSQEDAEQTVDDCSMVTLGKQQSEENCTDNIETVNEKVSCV
# Protocol: Inhibition of ^3H-Ketanserin Binding to 5-HT2 Receptors in Rat Cortex in vitro.
# By this method the inhibition by drugs of the binding of ^3H-Ketanserin (0.5 nM) to 5-HT2A receptors in membranes from rat is determined in vitro .
# [1] = 3H-Ketanserin 0.5 nM, membranes from rat cortex, read-out: 3H Ketanserin (5-HT2A) binding, IC50
Compound,melting point,IC50 (5-HT1A receptors),IC50 (5-HT2A receptors; [1]),further results
"CC(=O)Nc1ccc2c(c1)C(CN1CC=C(c3c[nH]c4cc(Cl)ccc34)CC1)CC2 (stereo not drawn) (as salt: oxalate) (hydrate or solvate) [Compound 11e, 3-[1-(6-Acetylaminoindan-1-ylmethyl)-1,2,3,6-tetrahydropyridin-4-yl]-6-chloro-1H-indole]",151 to 164 °C,,,
"COc1ccccc1N1CCN(CC2CCc3ccc(NC(C)=O)cc32)CC1 (stereo not drawn) (as salt: oxalate) [Compound 4g, 1-(6-Acetylaminoindan-1-ylmethyl)-4-(2-methoxyphenyl)piperazine]",210 to 213 °C,,,
"CS(=O)(=O)Nc1ccc2c(c1)C(CN1CC=C(c3ccc(Cl)cc3)CC1)CC2 (stereo not drawn) (as salt: oxalate) [Compound 4m, 4-(4-Chlorophenyl)-1-(6-methansulphonylaminoindan-1-ylmethyl)-1,2,3,6-tetrahydropyperidine]",176 to 178 °C,,,
"CNC(=O)Nc1ccc2c(c1)C(CN1CCN(c3ccc4c(c3)OCO4)CC1)CC2 (stereo not drawn) (as salt: oxalate) [Compound 5d, 1-(6-Methylaminocarbonylaminoindan-1-ylmethyl)-4-(3,4-methylendioxyphenyl)piperazine]",132 to 133 °C,,,
"CC(=O)Nc1ccc2c(c1)C(CN1CC=C(c3c[nH]c4ccc(Cl)cc34)CC1)CS2 (stereo not drawn) (as salt: oxalate) [Compound 11b, 3-[1-(5-Acetylamino-2,3-dihydrobenzothiophen-3-ylmethyl)-1,2,3,6-tetrahydropyridin-4-yl]-5-chloro-1H-indole]",214 to 216 °C,,,
"CC(=O)Nc1ccc2c(c1)C(CN1CCC(c3c[nH]c4ccc(F)cc34)CC1)CC2 (stereo not drawn) (as salt: oxalate) [Compound 11c, 3-[1-(6-Acetylaminoindan-1-ylmethyl)piperidin-4-yl]-5-fluoro-1H-indole]",145 to 149 °C,,,
"CC(=O)Nc1ccc2c(c1)C(CN1CC=C(c3c[nH]c4ccc(F)cc34)CC1)CS2 (stereo not drawn) (as salt: oxalate) [Compound 11d, 3-[1-(5-Acetylamino-2,3-dihydrobenzothiophen-3-ylmethyl)-1,2,3,6-tetrahydropyridin-4-yl]-5-fluoro-1H-indole]",155 to 165 °C,,,
"CC(=O)Nc1ccc2c(c1)C(CN1CCC(c3c[nH]c4cc(Cl)ccc34)CC1)CC2 (stereo not drawn) (as salt: oxalate) [Compound 11f, 3-[1-(6-Acetylaminoindan-1-ylmethyl)piperidin-4-yl]-6-chloro-1H-indole]",122 to 130 °C,,,
"CC(=O)Nc1ccc2c(c1)C(CN1CC=C(c3c[nH]c4ccc(Cl)cc34)CC1)CC2 (stereo not drawn) (as salt: oxalate) [Compound 11g, 3-[1-(6-Acetylaminoindan-1-ylmethyl)-1,2,3,6-tetrahydropyridin-4-yl]-5-chloro-1H-indole]",220 to 223 °C,,,
"CC(=O)Nc1ccc2c(c1)C(CN1CCC(c3cn(C)c4cc(Cl)ccc34)CC1)CC2 (stereo not drawn) (as salt: oxalate) [Compound 15b, 3-[1-(6-Acetylaminoindan-1-ylmethyl)piperidin-4-yl]-6-chloro-1-m ethyl-1H-indole]",202 to 205 °C,,,
"Nc1ccc2c(c1)C(CN1CCN(c3ccc(Cl)cc3)CC1)CC2 (stereo not drawn) [Compound 2e, 1-(6-Aminoindan-1-ylmethyl)-4-(4-chlorophenyl)piperazine]",98 to 109 °C,,,
"COc1ccccc1N1CCN(CC2CCc3ccc(NC(C)=O)cc32)CC1 (stereo not drawn) [Compound 4g, 1-(6-Acetylaminoindan-1-ylmethyl)-4-(2-methoxyphenyl)piperazine]",,31 nM,280 nM,
"CS(=O)(=O)Nc1ccc2c(c1)C(CN1CC=C(c3ccc(Cl)cc3)CC1)CC2 (stereo not drawn) [Compound 4m, 4-(4-Chlorophenyl)-1-(6-methansulphonylaminoindan-1-ylmethyl)-1,2,3,6-tetrahydropyperidine]",,120 nM,,IC50 (5-HT2A receptors): 2.7 nM
"CC(=O)Nc1ccc2c(c1)C(CN1CCC(c3c[nH]c4ccc(Cl)cc34)CC1)CS2 (stereo not drawn) [Compound 11a, 3-[1-(5-Acetylamino-2,3-dihydrobenzothiophen-3-ylmethyl)piperidin-4-yl]-5-chloro-1H-indole]",,28 nM,42 nM,
"CC(=O)Nc1ccc2c(c1)C(CN1CC=C(c3c[nH]c4ccc(Cl)cc34)CC1)CS2 (stereo not drawn) [Compound 11b, 3-[1-(5-Acetylamino-2,3-dihydrobenzothiophen-3-ylmethyl)-1,2,3,6-tetrahydropyridin-4-yl]-5-chloro-1H-indole]",,21 nM,44 nM,
"CC(=O)Nc1ccc2c(c1)C(CN1CCC(c3c[nH]c4ccc(F)cc34)CC1)CC2 (stereo not drawn) [Compound 11c, 3-[1-(6-Acetylaminoindan-1-ylmethyl)piperidin-4-yl]-5-fluoro-1H-indole]",,16 nM,15 nM,
"CC(=O)Nc1ccc2c(c1)C(CN1CC=C(c3c[nH]c4ccc(F)cc34)CC1)CS2 (stereo not drawn) [Compound 11d, 3-[1-(5-Acetylamino-2,3-dihydrobenzothiophen-3-ylmethyl)-1,2,3,6-tetrahydropyridin-4-yl]-5-fluoro-1H-indole]",,29 nM,15 nM,

# Now from value to molecule, other results behind:
melting point,IC50 (5-HT1A receptors),IC50 (5-HT2A receptors; [1]),Compound,further results
189 to 191 °C,,,CC(=O)Nc1ccc2c(c1)C(CN1CCC(n3ccc4cc(Cl)ccc43)CC1)CC2 (stereo not drawn),
78 to 84 °C,,,Nc1ccc2c(c1)C(CN1CC=C(c3ccc(F)cc3)CC1)CC2 (stereo not drawn),
191 to 193 °C,,,"CCOC(=O)Nc1ccc2c(c1)C(CN1CCC(c3ccc(F)cc3)CC1)CC2 (stereo not drawn) (as salt: fumarate) [Compound 4l, 1-(6-Ethyloxycarbonylaminoindan-1-ylmethyl)-4-(4-fluorophenyl)piperidine]",
181 to 183 °C,,,"CNC(=S)Nc1ccc2c(c1)C(CN1CCC(c3ccc(F)cc3)CC1)CC2 (stereo not drawn) (as salt: fumarate) [Compound 5c, 4-(4-Fluorophenyl)-1-(6-methylaminothiocarbonylaminoindan-1-ylmethyl)piperidine]",
198 to 201 °C,,,Nc1ccc2c(c1)C(CN1CCC(c3ccc(F)cc3)CC1)CC2 (stereo not drawn) (as salt: hydrochloride) [Compound 2a],
195 to 203 °C,,,"CC(=O)Nc1ccc2c(c1)C(CN1CCN(c3ccccc3Cl)CC1)CC2 (stereo not drawn) (as salt: hydrochloride) [Compound 4f, 1-(6-Acetylaminoindan-1-ylmethyl)-4-(2-chlorophenyl)piperazine]",
223 to 226 °C,,,CC(=O)Nc1ccc2c(c1)C(CN1CC=C(c3ccc(Cl)cc3)CC1)CC2 (stereo not drawn) (as salt: oxalate),
163 to 165 °C,,,CC(=O)Nc1ccc2c(c1)C(CN1CCC(O)(c3ccc(Cl)c(C(F)(F)F)c3)CC1)CC2 (stereo not drawn) (as salt: oxalate),
,120 nM,16 nM,"CC(=O)Nc1ccc2c(c1)C(CN1CCC(c3ccc(F)cc3)CC1)CC2 (single isomer, unassigned; (+)) [Compound 14a, (+)-1-(6-Acetylaminoindan-1-ylmethyl)-4-(4-fluorophenyl)piperidine]",
,480 nM,2.5 nM,Nc1ccc2c(c1)C(CN1CCC(c3ccc(F)cc3)CC1)CC2 (stereo not drawn) [Compound 2a],
,84 nM,65 nM,"CC(=O)Nc1ccc2c(c1)C(CN1CCN(c3ccccc3Cl)CC1)CC2 (stereo not drawn) [Compound 4f, 1-(6-Acetylaminoindan-1-ylmethyl)-4-(2-chlorophenyl)piperazine]",
,,55 nM,"CCOC(=O)Nc1ccc2c(c1)C(CN1CCC(c3ccc(F)cc3)CC1)CC2 (stereo not drawn) [Compound 4l, 1-(6-Ethyloxycarbonylaminoindan-1-ylmethyl)-4-(4-fluorophenyl)piperidine]","inhibition at 0.1 µM (5-HT1A receptors; read-out: 3H 8-OH DPAT (5-HT1A) binding, % inhibition of binding at 100 nM, at 100 nM, rat brain membranes): 26%"
188 to 189 °C,,,"CC(=O)Nc1ccc2c(c1)C(CN1CCN(c3ccc4c(c3)OCO4)CC1)CC2 (stereo not drawn) [Compound 4q, 1-(6-Acetylaminoindan-1-ylmethyl)-4-(3,4-methylenedioxyphenyl)piperazine]",
,35 nM,5.1 nM,"CNC(=O)Nc1ccc2c(c1)C(CN1CCC(c3ccc(F)cc3)CC1)CC2 (stereo not drawn) [Compound 5a, 4-(4-Fluorophenyl)-1-(6-methylaminocarbonylaminoindan-1-ylmethyl)piperidine]",
,> 1000 nM,3.9 nM,"CNC(=S)Nc1ccc2c(c1)C(CN1CCC(c3ccc(F)cc3)CC1)CC2 (stereo not drawn) [Compound 5c, 4-(4-Fluorophenyl)-1-(6-methylaminothiocarbonylaminoindan-1-ylmethyl)piperidine]",
,1200 nM,9.1 nM,"CN(C)C(=O)Nc1ccc2c(c1)C(CN1CCC(c3ccc(F)cc3)CC1)CC2 (stereo not drawn) [Compound 6a, 1-(6-Dimethylaminocarbonylaminoindan-1-ylmethyl)-4-(4-fluorophenyl)piperidine]",
,13 nM,2.6 nM,"NC(=O)Nc1ccc2c(c1)C(CN1CCC(c3ccc(F)cc3)CC1)CC2 (stereo not drawn) [Compound 7a, 1-(6-Aminocarbonylaminoindan-1-ylmethyl)-4-(4-fluorophenyl)piperidine]",
